Active and inactive are the calls of the source. The rule behind the calls is not given here.
Assays:
NCI-H522 = test: Growth inhibition of human NCI-H522 cells after 48 hrs by SRB assay; assay type: functional; conditions: NCI-H522, 48 h
A498 = test: Growth inhibition of human A498 cells after 48 hrs by SRB assay; assay type: functional; conditions: A498, 48 h
T47D = test: Growth inhibition of human T47D cells after 48 hrs by SRB assay; assay type: functional
SN12C = test: Growth inhibition of human SN12C cells after 48 hrs by SRB assay; assay type: functional
SK-OV-3 = test: Growth inhibition of human SKOV3 cells after 48 hrs by SRB assay; assay type: functional; conditions: SK-OV-3, 48 h
DU-145 = test: Growth inhibition of human DU145 cells after 48 hrs by SRB assay; assay type: functional; conditions: DU-145, 48 h
HCC 2998 = test: Growth inhibition of human HCC2998 cells after 48 hrs by SRB assay; assay type: functional; conditions: HCC 2998, 48 h
HCT-15 = test: Growth inhibition of human HCT15 cells after 48 hrs by SRB assay; assay type: functional; conditions: HCT-15, 48 h
SNB-19 = test: Growth inhibition of human SNB19 cells after 48 hrs by SRB assay; assay type: functional; conditions: SNB-19, 48 h
SF-539 = test: Growth inhibition of human SF539 cells after 48 hrs by SRB assay; assay type: functional; conditions: SF-539, 48 h
OVCAR-5 = test: Growth inhibition of human OVCAR5 cells after 48 hrs by SRB assay; assay type: functional; conditions: OVCAR-5, 48 h
COLO 205 = test: Growth inhibition of human COLO205 cells after 48 hrs by SRB assay; assay type: functional; conditions: COLO 205, 48 h
CAKI-1 = test: Growth inhibition of human Caki1 cells after 48 hrs by SRB assay; assay type: functional; conditions: CAKI-1, 48 h
TK-10 = test: Growth inhibition of human TK10 cells after 48 hrs by SRB assay; assay type: functional; conditions: TK-10, 48 h
UO-31 = test: Growth inhibition of human UO31 cells after 48 hrs by SRB assay; assay type: functional; conditions: UO-31, 48 h
LOX IMVI = test: Growth inhibition of human LOXIMVI cells after 48 hrs by SRB assay; assay type: functional
SF-268 = test: Growth inhibition of human SF268 cells after 48 hrs by SRB assay; assay type: functional; conditions: SF-268, 48 h
OVCAR-3 = test: Growth inhibition of human OVCAR-3 cells after 48 hrs by SRB assay; assay type: functional; conditions: OVCAR-3, 48 h
NCI/ADR-RES = test: Growth inhibition of human NCI/ADR-RES cells after 48 hrs by SRB assay; assay type: functional
NCI-H23 = test: Growth inhibition of human NCI-H23 cells after 48 hrs by SRB assay; assay type: functional; conditions: NCI-H23, 48 h
K562 [1] = test: Cell cycle arrest in human K562 cells assessed as accumulation at G2/M phase at 42.7 uM after 24 hrs using propidium iodide staining by flow cytometry; assay type: functional, cell-based
RPMI-8226 = test: Growth inhibition of human RPMI8226 cells after 48 hrs by SRB assay; assay type: functional; conditions: RPMI-8226, 48 h
HT-29 = test: Growth inhibition of human HT-29 cells after 48 hrs by SRB assay; assay type: functional; conditions: HT-29, 48 h
786-0 = test: Growth inhibition of human 786-0 cells after 48 hrs by SRB assay; assay type: functional; conditions: 786-0, 48 h
UACC-62 = test: Growth inhibition of human UACC62 cells after 48 hrs by SRB assay; assay type: functional; conditions: UACC-62, 48 h
RXF 393 = test: Growth inhibition of human […] cells after 48 hrs by SRB assay; assay type: functional; conditions: RXF 393, 48 h
[2] = Growth inhibition of human Hs 578T cells after 48 hrs by SRB assay; assay type: functional
IGROV-1 = test: Growth inhibition of human IGROV1 cells after 48 hrs by SRB assay; assay type: functional; conditions: IGROV-1, 48 h
HOP-92 = test: Growth inhibition of human HOP92 cells after 48 hrs by SRB assay; assay type: functional; conditions: HOP-92, 48 h
MOLT-4 = test: Growth inhibition of human MOLT4 cells after 48 hrs by SRB assay; assay type: functional; conditions: MOLT-4, 48 h
ACHN = test: Growth inhibition of human ACHN cells after 48 hrs by SRB assay; assay type: functional
SF-295 = test: Growth inhibition of human SF295 cells after 48 hrs by SRB assay; assay type: functional; conditions: SF-295, 48 h
SW-620 = test: Growth inhibition of human SW620 cells after 48 hrs by SRB assay; assay type: functional; conditions: SW-620, 48 h
HCT-116 = test: Growth inhibition of human HCT116 cells after 48 hrs by SRB assay; assay type: functional; conditions: HCT-116, 48 h
Malme-3M = test: Growth inhibition of human MALME-3M cells after 48 hrs by SRB assay; assay type: functional
NCI-H322M = test: Growth inhibition of human NCI-H322M cells after 48 hrs by SRB assay; assay type: functional
MDA-MB-435 = test: Growth inhibition of human MDA-MB-435 cells after 48 hrs by SRB assay; assay type: functional; conditions: MDA-MB-435, 48 h
NCI-H226 = test: Growth inhibition of human NCI-H226 cells after 48 hrs by SRB assay; assay type: functional; conditions: NCI-H226, 48 h
UACC-257 = test: Growth inhibition of human UACC257 cells after 48 hrs by SRB assay; assay type: functional; conditions: UACC-257, 48 h
SR = test: Growth inhibition of human SR cells after 48 hrs by SRB assay; assay type: functional
MDA-MB-231 = test: Growth inhibition of human MDA-MB-231 cells after 48 hrs by SRB assay; assay type: functional; conditions: MDA-MB-231, 48 h
K562 [3] = test: Growth inhibition of human K562 cells after 48 hrs by SRB assay; assay type: functional; conditions: K562, 48 h
OVCAR-8 = test: Growth inhibition of human OVCAR8 cells after 48 hrs by SRB assay; assay type: functional; conditions: OVCAR-8, 48 h
HOP-62 = test: Growth inhibition of human HOP62 cells after 48 hrs by SRB assay; assay type: functional; conditions: HOP-62, 48 h
HL-60(TB) = test: Growth inhibition of human HL-60(TB) cells after 48 hrs by SRB assay; assay type: functional; conditions: HL-60, 48 h
U-251 = test: Growth inhibition of human U251 cells after 48 hrs by SRB assay; assay type: functional; conditions: U-251, 48 h
MCF7 = test: Growth inhibition of human MCF7 cells after 48 hrs by SRB assay; assay type: functional; conditions: MCF7, 48 h
A549 = test: Growth inhibition of human A549 cells after 48 hrs by SRB assay; assay type: functional; conditions: A549, 48 h
K562 [4] = test: Cell cycle arrest in human K562 cells assessed as accumulation at S phase at 42.7 uM after 24 hrs using propidium iodide staining by flow cytometry; assay type: functional, cell-based
KM12 = test: Growth inhibition of human KM12 cells after 48 hrs by SRB assay; assay type: functional; conditions: KM12, 48 h
M14 = test: Growth inhibition of human M14 cells after 48 hrs by SRB assay; assay type: functional; conditions: M14, 48 h
NCI-H460 = test: Growth inhibition of human NCI-H460 cells after 48 hrs by SRB assay; assay type: functional; conditions: NCI-H460, 48 h
SK-MEL-28 = test: Growth inhibition of human SK-MEL-28 cells after 48 hrs by SRB assay; assay type: functional; conditions: SK-MEL-28, 48 h
SK-MEL-5 = test: Growth inhibition of human SK-MEL-5 cells after 48 hrs by SRB assay; assay type: functional; conditions: SK-MEL-5, 48 h
SK-MEL-2 = test: Growth inhibition of human SK-MEL-2 cells after 48 hrs by SRB assay; assay type: functional; conditions: SK-MEL-2, 48 h
SNB-75 = test: Growth inhibition of human SNB75 cells after 48 hrs by SRB assay; assay type: functional; conditions: SNB-75, 48 h
PC-3 = test: Growth inhibition of human PC3 cells after 48 hrs by SRB assay; assay type: functional; conditions: PC-3, 48 h
OVCAR-4 = test: Growth inhibition of human OVCAR4 cells after 48 hrs by SRB assay; assay type: functional; conditions: OVCAR-4, 48 h
BT-549 = test: Growth inhibition of human BT549 cells after 48 hrs by SRB assay; assay type: functional; conditions: BT-549, 48 h
EKVX = test: Growth inhibition of human EKVX cells after 48 hrs by SRB assay; assay type: functional
K562 [5] = test: Growth inhibition of drug-resistant human K562 cells after 48 hrs by SRB assay; assay type: functional; conditions: K562, 48 h

SMILES: O=C(Nc1ccccc1OC(F)(F)F)Nc1n[nH]c2ccccc12
- GI50 (NCI-H522): 33.9 µM
- GI50 (A498): > 100 µM
- GI50 (T47D): 37.5 µM
- GI50 (SN12C): 72.5 µM
- GI50 (SK-OV-3): > 100 µM
- GI50 (DU-145): 51.7 µM
- GI50 (HCC 2998): 55.9 µM
- GI50 (HCT-15): 36.2 µM
- GI50 (SNB-19): 78.3 µM
- GI50 (SF-539): 30.5 µM
- GI50 (OVCAR-5): 34.3 µM
- GI50 (COLO 205): 71.8 µM
- GI50 (CAKI-1): 31 µM
- GI50 (TK-10): 37.9 µM
- GI50 (UO-31): 17.4 µM
- GI50 (LOX IMVI): 22.5 µM
- GI50 (SF-268): 16.2 µM
- GI50 (OVCAR-3): 90.8 µM
- GI50 (NCI/ADR-RES): 44.2 µM
- GI50 (NCI-H23): 50 µM
- Activity (K562 [1]): Active
- GI50 (RPMI-8226): 52 µM
- GI50 (HT-29): 26.1 µM
- GI50 (786-0): 38.7 µM
- GI50 (UACC-62): 31.7 µM
- GI50 (RXF 393): 24.3 µM
- GI50 [2]: 19.4 µM
- GI50 (IGROV-1): 4.59 µM
- GI50 (HOP-92): 12.9 µM
- GI50 (MOLT-4): 59.1 µM
- GI50 (ACHN): 31.1 µM
- GI50 (SF-295): 39 µM
- GI50 (SW-620): 36.7 µM
- GI50 (HCT-116): 16.2 µM
- GI50 (Malme-3M): 76.9 µM
- GI50 (NCI-H322M): 81.6 µM
- GI50 (MDA-MB-435): 51.5 µM
- GI50 (NCI-H226): 26.1 µM
- GI50 (UACC-257): 47.2 µM
- GI50 (SR): 0.0489 µM
- TGI (SR): 24 µM
- CC50 (SR; read-out: LC50 (the source's name)): > 100 µM
- GI50 (MDA-MB-231): 17.9 µM
- GI50 (K562 [3]): 42.7 µM
- GI50 (OVCAR-8): 29.6 µM
- GI50 (HOP-62): 19.6 µM
- GI50 (HL-60(TB)): 17.9 µM
- GI50 (U-251): 31.1 µM
- GI50 (MCF7): 1.75 µM
- GI50 (A549): 15.7 µM
- Activity (K562 [4]): Active
- GI50 (KM12): 23.4 µM
- GI50 (M14): 22.5 µM
- GI50 (NCI-H460): 15 µM
- GI50 (SK-MEL-28): 42.2 µM
- GI50 (SK-MEL-5): 28.7 µM
- GI50 (SK-MEL-2): 81.4 µM
- GI50 (SNB-75): 17.5 µM
- GI50 (PC-3): 31.4 µM
- GI50 (OVCAR-4): 37.7 µM
- GI50 (BT-549): 76.4 µM
- GI50 (EKVX): 48.2 µM

SMILES: CCc1nc2cc(Cl)ccc2c(=O)n1-c1n[nH]c2ccccc12
- GI50 (K562 [5]): 11.7 µM
- GI50 (K562 [3]): 10.7 µM

Reference: ChEMBL document CHEMBL1152860, “Synthesis and antiproliferative activity of 3-amino-N-phenyl-1H-indazole-1-carboxamides” (2009)
